BindingDB's records for patent US20250145606 (Arcus Biosciences, 2025)

Experiments:
Assay in all cases: Inhibition of c-Kit, PDGFRα, PDGFRβ, CSFIR and FLT3 Kinase Activity Assay
[1] = molecular target: Macrophage colony-stimulating factor 1 receptor (Homo sapiens, UniProt P07333)
Method: (§1) On the day of the assay, compounds were solubilized in DMSO and dispensed into a 384-well white Opti-plate (PerkinElmer, catalog #6007290) to generate a 22 point 1:2 titration. Enzyme solution was prepared for each of the tyrosine kinases in 50 mM HEPES, pH 7.4, 5 mM MgCl2 for c-Kit or 10 mM MgCl2 for FLT3, CSFIR, PDGFRa and PDGFRβ, 2 mM MnCl2, 0.01% Brij-35 and 0.01% BSA. Working enzyme concentrations were prepared for c-Kit at 2 nM (2×), PDGFRa and PDGFR at 10 nM (2×), CSFIR at 2 nM (2×) and FLT3 at 0.4 nM (2×). Five microliters of enzyme dilution of each tyrosine kinase were added to their respective 384-well white Opti-plate pre-dispensed with compound and allowed to incubate for 1 h at rt. Utilizing the same enzyme buffer recipe, 2x substrate mixes were prepared for each enzyme as follows: For c-Kit, 1.6 μM (2×) TK substrate and 16 μM (2×) ATP (Promega, catalog #V915). For PDGFRα, 3.2 μM TK substrate and 1 μM ATP. For PDGFRβ, 3.2 μM TK substrate and 40 μM ATP. For CSFIR, […] TK substrate and 20 μM ATP. For FLT3, 3.2 μM TK substrate and 100 μM ATP. Reactions were initiated by addition of 5 μL of the respective 2x substrate mix to each well of the plates containing the respective tyrosine kinase enzymes and were allowed to proceed for 120 minutes at rt, except for FLT3, the reaction time is 45 min. Following the reaction, 10 μL of detection mix consisting of 0.2 μM (2×) of Streptavidin-XL665 and 2 μM (2×) of TK-Antibody-Cryptate prepared in detection buffer (Part 62SDBRDF of KinEASE assay kit) was added and then allowed to incubate for 60 min. The TR-FRET signal was quantified by measuring the ratio of emission at 665 nm to 620 nm after excitation at 320 nm by reading on a PerkinElmer Envision multimode reader. Compound potencies (IC50 values) were determined using a standard 4-parameter non-linear regression fit.

[2] = molecular target: Platelet-derived growth factor receptor alpha (Homo sapiens, UniProt P16234)
Method: as §1

[3] = molecular target: Platelet-derived growth factor receptor beta (Homo sapiens, UniProt P09619)
Method: as §1

[4] = molecular target: Mast/stem cell growth factor receptor Kit (Homo sapiens, UniProt P10721)
Method: as §1

Sequence of Platelet-derived growth factor receptor alpha (P16234 whole entry): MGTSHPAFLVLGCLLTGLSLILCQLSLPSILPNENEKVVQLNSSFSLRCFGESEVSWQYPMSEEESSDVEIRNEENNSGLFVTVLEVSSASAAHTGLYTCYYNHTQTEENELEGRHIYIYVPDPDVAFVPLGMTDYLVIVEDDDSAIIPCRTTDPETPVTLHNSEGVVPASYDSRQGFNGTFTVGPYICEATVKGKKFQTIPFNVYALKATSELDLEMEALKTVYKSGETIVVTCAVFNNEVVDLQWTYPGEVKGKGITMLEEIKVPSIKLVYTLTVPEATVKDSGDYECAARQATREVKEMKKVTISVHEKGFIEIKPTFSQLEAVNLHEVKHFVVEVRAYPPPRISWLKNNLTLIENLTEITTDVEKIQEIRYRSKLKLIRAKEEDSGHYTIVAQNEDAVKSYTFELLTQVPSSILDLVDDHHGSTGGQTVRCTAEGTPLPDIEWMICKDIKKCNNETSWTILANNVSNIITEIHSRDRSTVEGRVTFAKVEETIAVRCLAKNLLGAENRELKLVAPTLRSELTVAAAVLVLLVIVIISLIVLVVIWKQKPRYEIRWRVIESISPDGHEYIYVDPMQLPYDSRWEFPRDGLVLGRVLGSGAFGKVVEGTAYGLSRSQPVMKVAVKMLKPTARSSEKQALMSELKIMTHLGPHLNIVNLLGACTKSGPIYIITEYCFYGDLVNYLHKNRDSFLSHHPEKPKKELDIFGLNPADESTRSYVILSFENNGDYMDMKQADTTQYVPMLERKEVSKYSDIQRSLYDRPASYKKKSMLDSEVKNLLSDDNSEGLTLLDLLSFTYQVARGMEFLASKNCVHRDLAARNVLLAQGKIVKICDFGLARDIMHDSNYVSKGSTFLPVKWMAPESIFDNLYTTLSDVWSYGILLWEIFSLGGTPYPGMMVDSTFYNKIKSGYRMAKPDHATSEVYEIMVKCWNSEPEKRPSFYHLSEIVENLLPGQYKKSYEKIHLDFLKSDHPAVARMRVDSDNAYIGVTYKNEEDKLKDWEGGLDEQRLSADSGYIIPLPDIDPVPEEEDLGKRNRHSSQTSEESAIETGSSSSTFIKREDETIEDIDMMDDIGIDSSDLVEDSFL
Sequence of Macrophage colony-stimulating factor 1 receptor (P07333 whole entry): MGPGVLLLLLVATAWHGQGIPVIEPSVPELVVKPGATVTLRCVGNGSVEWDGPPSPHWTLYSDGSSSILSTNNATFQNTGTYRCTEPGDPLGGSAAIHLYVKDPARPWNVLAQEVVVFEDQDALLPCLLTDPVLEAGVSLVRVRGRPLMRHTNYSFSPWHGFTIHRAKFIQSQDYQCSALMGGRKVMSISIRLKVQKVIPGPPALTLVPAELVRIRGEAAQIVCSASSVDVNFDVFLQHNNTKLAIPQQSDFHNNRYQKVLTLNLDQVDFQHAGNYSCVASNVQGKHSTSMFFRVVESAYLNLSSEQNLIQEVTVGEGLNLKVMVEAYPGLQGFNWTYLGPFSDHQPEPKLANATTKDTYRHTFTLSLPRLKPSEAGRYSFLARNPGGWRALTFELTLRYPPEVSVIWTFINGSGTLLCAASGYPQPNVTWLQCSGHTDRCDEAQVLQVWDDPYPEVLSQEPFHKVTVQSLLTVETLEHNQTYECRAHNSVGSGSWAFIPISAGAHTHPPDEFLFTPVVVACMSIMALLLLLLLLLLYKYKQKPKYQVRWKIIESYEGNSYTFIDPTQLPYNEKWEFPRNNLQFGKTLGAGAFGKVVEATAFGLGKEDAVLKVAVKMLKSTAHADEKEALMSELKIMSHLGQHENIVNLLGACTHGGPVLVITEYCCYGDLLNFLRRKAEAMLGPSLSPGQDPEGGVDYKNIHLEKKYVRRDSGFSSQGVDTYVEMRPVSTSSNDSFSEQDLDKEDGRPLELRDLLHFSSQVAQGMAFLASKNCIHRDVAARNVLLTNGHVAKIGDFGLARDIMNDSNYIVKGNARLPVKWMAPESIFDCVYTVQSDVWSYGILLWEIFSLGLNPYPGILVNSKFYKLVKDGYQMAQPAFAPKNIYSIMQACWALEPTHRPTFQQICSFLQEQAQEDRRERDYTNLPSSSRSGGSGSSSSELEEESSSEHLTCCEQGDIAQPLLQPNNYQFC
Sequence of Platelet-derived growth factor receptor beta (P09619 whole entry): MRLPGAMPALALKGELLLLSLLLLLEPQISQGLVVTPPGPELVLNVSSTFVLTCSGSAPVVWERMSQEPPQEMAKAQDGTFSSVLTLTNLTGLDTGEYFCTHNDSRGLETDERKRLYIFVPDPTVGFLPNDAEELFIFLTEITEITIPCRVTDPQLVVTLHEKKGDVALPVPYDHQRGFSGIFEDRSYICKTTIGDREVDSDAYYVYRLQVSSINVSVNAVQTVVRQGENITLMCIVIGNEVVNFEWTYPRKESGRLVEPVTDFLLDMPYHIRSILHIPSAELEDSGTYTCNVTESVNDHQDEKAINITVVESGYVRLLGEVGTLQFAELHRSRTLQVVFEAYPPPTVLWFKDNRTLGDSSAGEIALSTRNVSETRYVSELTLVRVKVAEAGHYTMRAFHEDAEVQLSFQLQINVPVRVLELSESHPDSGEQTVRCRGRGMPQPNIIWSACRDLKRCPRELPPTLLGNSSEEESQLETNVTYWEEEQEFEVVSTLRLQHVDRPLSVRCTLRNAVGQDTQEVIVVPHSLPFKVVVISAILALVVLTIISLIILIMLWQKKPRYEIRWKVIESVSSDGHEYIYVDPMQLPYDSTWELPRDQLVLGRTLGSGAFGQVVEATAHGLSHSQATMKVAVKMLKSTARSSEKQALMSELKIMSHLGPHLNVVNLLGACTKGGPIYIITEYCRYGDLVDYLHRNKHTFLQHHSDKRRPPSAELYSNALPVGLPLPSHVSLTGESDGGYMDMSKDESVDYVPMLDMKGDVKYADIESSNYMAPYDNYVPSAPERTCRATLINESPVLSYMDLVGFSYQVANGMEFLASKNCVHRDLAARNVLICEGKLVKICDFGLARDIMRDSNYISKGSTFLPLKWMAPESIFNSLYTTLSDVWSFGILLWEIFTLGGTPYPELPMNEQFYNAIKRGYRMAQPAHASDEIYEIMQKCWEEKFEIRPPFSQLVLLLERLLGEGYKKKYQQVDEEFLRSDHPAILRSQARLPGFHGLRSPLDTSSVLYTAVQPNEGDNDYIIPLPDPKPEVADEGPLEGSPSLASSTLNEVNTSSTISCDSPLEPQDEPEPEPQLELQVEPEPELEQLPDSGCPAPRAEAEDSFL
Sequence of Mast/stem cell growth factor receptor Kit (P10721 whole entry): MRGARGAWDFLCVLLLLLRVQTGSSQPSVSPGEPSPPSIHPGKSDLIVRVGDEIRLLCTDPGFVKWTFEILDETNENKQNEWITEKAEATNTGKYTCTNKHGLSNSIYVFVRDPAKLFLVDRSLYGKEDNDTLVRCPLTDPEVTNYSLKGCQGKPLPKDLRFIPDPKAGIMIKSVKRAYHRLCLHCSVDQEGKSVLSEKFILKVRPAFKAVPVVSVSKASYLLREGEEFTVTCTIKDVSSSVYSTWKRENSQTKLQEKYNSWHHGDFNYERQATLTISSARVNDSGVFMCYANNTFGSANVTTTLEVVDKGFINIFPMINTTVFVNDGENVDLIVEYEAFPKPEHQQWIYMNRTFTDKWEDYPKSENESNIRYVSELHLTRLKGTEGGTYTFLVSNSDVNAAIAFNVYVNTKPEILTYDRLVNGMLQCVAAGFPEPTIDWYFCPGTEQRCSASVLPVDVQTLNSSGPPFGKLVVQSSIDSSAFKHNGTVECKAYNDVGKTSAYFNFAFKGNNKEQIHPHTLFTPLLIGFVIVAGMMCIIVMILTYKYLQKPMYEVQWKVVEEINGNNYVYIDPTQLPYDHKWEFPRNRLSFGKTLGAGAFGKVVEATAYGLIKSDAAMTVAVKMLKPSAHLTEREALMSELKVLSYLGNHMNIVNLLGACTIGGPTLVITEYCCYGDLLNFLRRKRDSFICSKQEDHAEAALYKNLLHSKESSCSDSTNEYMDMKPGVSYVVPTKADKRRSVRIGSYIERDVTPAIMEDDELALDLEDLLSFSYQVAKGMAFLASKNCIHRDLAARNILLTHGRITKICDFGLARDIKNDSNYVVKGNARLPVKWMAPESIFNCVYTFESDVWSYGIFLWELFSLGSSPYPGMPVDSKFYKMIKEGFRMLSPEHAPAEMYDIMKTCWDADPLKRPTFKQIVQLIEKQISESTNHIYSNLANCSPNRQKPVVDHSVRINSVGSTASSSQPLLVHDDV

IC50 [1] [nM] | IC50 [2] [nM] | IC50 [3] [nM] | IC50 [4] [nM] | SMILES
> 1000 | > 1000 | > 1000 |  | Cc1ncc(C(=O)Nc2cc(C(=O)NCc3cccnc3)c(F)cc2C)s1 [US20250145606, Example 12]
> 1000 | > 1000 | > 1000 | < 100 | Cc1cc(F)c(C(=O)Nc2cn[nH]c2)cc1NC(=O)c1cnc(N)s1 [US20250145606, Example 157]
